Results reported in patent US9433621B2, “Substituted pyridine and pyrimidine derivatives and their use in treating viral infections” (Merck Sharp & Dohme Corp., priority 2010, dated 2016).

Test system: HCV replicon
Experiment: Cell-Based HCV Replicon Assay
Conditions: Hepatitis C virus; HCV Replicon assay, EC90 range, Table VI; read-out: EC90
Outline: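 Replicon cells, 5000/well, treated 3 days with 10 serial 2-fold dilutions (top 25 μM to 1 μM) in 0.5% DMSO, 10% FBS. Replicon RNA measured by multiplex Taqman RT-PCR (NS5B amplicon, GAPDH control); EC50/EC90 = concentration giving ΔCT of 1/3.2 over baseline from sigmoid fit.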

Row | Compound | EC90 [nM]
1 | Cc1nc(NCC2CC2)nc(N[C@@H]2C[C@H](C(C)(C)S(C)(=O)=O)[C@@H](O)[C@H]2O)c1-c1nc2c(C)nccc2s1 [Example 5070] | < 500
2 | COCCNc1nc(C)c(-c2nc3c(C)nccc3s2)c(N[C@@H]2C[C@H](C(C)(C)S(C)(=O)=O)[C@@H](O)[C@H]2O)n1 [Example 5071] | < 500
3 | Cc1nc(N)nc(N[C@@H]2C[C@H](C(C)(C)S(C)(=O)=O)[C@@H](O)[C@H]2O)c1-c1nc2c(C3CC3)nccc2s1 [Example 5072] | < 500
4 | Cc1nc(NCC2CC2)nc(N[C@@H]2C[C@H](C(C)(C)S(C)(=O)=O)[C@@H](O)[C@H]2O)c1-c1nc2c(C3CC3)nccc2s1 [Example 5073] | < 500
5 | Cc1nc(NCC(C)(C)C)nc(N[C@@H]2C[C@H](C(C)(C)S(C)(=O)=O)[C@@H](O)[C@H]2O)c1-c1nc2c(C3CC3)nccc2s1 [Example 5074] | < 500
6 | COCCNc1nc(C)c(-c2nc3c(C4CC4)nccc3s2)c(N[C@@H]2C[C@H](C(C)(C)S(C)(=O)=O)[C@@H](O)[C@H]2O)n1 [Example 5075] | < 500
7 | Cc1nc(N)nc(N[C@@H]2C[C@H](C(C)(C)S(=O)(=O)c3ccccc3)[C@@H](O)[C@H]2O)c1-c1nc2c(C)nccc2s1 [Example 5076] | < 500
8 | COCCNc1nc(C)c(-c2nc3c(C)nccc3s2)c(N[C@@H]2C[C@H](C(C)(C)S(=O)(=O)c3ccccc3)[C@@H](O)[C@H]2O)n1 [Example 5077] | < 500
9 | Cc1nc(NCC(F)(F)F)nc(N[C@@H]2C[C@H](C(C)(C)S(C)(=O)=O)[C@@H](O)[C@H]2O)c1-c1nc2c(C)nccc2s1 [Example 5078] | < 500
10 | Cc1nc(NCC(F)(F)F)nc(N[C@@H]2C[C@H](C(C)(C)S(C)(=O)=O)[C@@H](O)[C@H]2O)c1-c1nc2c(C3CC3)nccc2s1 [Example 5079] | < 500
11 | Cc1nc(NCC2CC2)nc(N[C@@H]2C[C@H](C(C)(C)S(=O)(=O)c3ccccc3)[C@@H](O)[C@H]2O)c1-c1nc2c(N)nccc2s1 [Example 5080] | < 500
12 | Cc1nc(N)nc(N[C@@H]2C[C@H](C(C)(C)S(=O)(=O)c3ccccc3)[C@@H](O)[C@H]2O)c1-c1nc2c(N)nccc2s1 [Example 5081] | < 500
13 | Cc1nc(NCc2c(F)cccc2F)nc(N[C@@H]2C[C@H](NC(=O)NCc3ccccc3F)[C@@H](O)[C@H]2O)c1-c1nc2c(C3CC3)nccc2s1 [Example 5082] | 500 to 5000
14 | Cc1nc(NCc2c(F)cccc2F)nc(N[C@@H]2C[C@H](NC(=O)NC(C)C)[C@@H](O)[C@H]2O)c1-c1nc2c(C3CC3)nccc2s1 [Example 5083] | < 500
15 | Cc1nc(NCc2c(F)cccc2F)nc(N[C@@H]2C[C@H](NC(=O)OCc3nccs3)[C@@H](O)[C@H]2O)c1-c1nc2c(C3CC3)nccc2s1 [Example 5084] | < 500
16 | CCCNC(=O)N[C@H]1C[C@@H](Nc2nc(NCc3c(F)cccc3F)nc(C)c2-c2nc3c(C4CC4)nccc3s2)[C@H](O)[C@@H]1O [Example 5085] | < 500
17 | CO[C@H](C)CNc1nc(C)c(-c2nc3c(C4CC4)nccc3s2)c(N[C@@H]2C[C@H](C(N)=O)[C@@H](O)[C@H]2O)n1 [Example 5086] | < 500
18 | CCNC(=O)N[C@H]1C[C@@H](Nc2nc(NCC3CC3)nc(C)c2-c2nc3c(C4CC4)nccc3s2)[C@H](O)[C@@H]1O [Example 5087] | < 500
19 | Cc1nc(NCC2CC2)nc(N[C@@H]2C[C@H](NC(=O)NC(C)(C)C)[C@@H](O)[C@H]2O)c1-c1nc2c(C3CC3)nccc2s1 [Example 5088] | < 500
20 | Cc1nc(N[C@H](C)C2CC2)nc(N[C@@H]2C[C@H](NC(=O)NC(C)(C)C)[C@@H](O)[C@H]2O)c1-c1nc2c(C3CC3)nccc2s1 [Example 5089] | < 500
21 | Cc1nc(N[C@H](C)C2CC2)nc(N[C@@H]2C[C@H](NC(=O)NCc3ccc(C(F)(F)F)cc3)[C@@H](O)[C@H]2O)c1-c1nc2c(C3CC3)nccc2s1 [Example 5090] | < 500

Row | Compound | EC90 [nM]
22 | Cc1nc(NC(C)(C)C)nc(N[C@@H]2C[C@H](NC(=O)NC(C)(C)C)[C@@H](O)[C@H]2O)c1-c1nc2c(C3CC3)nccc2s1 [Example 5091] | < 500
23 | Cc1nc(NCC2CC2)nc(N[C@@H]2C[C@H](NC(=O)Nc3ccccc3)[C@@H](O)[C@H]2O)c1-c1nc2c(C3CC3)nccc2s1 [Example 5092] | < 500
24 | Cc1nc(NCC2CC2)nc(N[C@@H]2C[C@H](NC(=O)NC3CCCC3)[C@@H](O)[C@H]2O)c1-c1nc2c(C3CC3)nccc2s1 [Example 5093] | < 500
25 | CCNC(=O)N[C@H]1C[C@@H](Nc2nc(NC(C)(C)C)nc(C)c2-c2nc3c(C4CC4)nccc3s2)[C@H](O)[C@@H]1O [Example 5094] | < 500
26 | Cc1nc(NC(C)(C)C)nc(N[C@@H]2C[C@H](NC(=O)NC3CC3)[C@@H](O)[C@H]2O)c1-c1nc2c(C3CC3)nccc2s1 [Example 5095] | < 500
27 | Cc1nc(N[C@H](C)C2CC2)nc(N[C@@H]2C[C@H](NC(=O)N(C)C)[C@@H](O)[C@H]2O)c1-c1nc2c(C3CC3)nccc2s1 [Example 5096] | < 500
28 | Cc1nc(NC(C)(C)C)nc(N[C@@H]2C[C@H](NC(=O)N(C)C)[C@@H](O)[C@H]2O)c1-c1nc2c(C3CC3)nccc2s1 [Example 5097] | < 500
29 | Cc1nc(NCC2CC2)nc(N[C@@H]2C[C@H](NC(=O)N(C)C)[C@@H](O)[C@H]2O)c1-c1nc2c(C3CC3)nccc2s1 [Example 5098] | < 500
30 | Cc1nc(NCC2CCC2)nc(N[C@@H]2C[C@H](NC(=O)NC(C)(C)C)[C@@H](O)[C@H]2O)c1-c1nc2c(C3CC3)nccc2s1 [Example 5100] | < 500
31 | COC1(CCNc2nc(C)c(-c3nc4c(C)nccc4s3)c(N[C@@H]3C[C@H](C(C)(C)O)[C@@H](O)[C@H]3O)n2)CCCC1 [Example 5101] | < 500
32 | CO[C@@]1(CNc2nc(C)c(-c3nc4c(C)nccc4s3)c(N[C@@H]3C[C@H](C(C)(C)O)[C@@H](O)[C@H]3O)n2)CCOC1 [Example 5102] | < 500
33 | CO[C@@]1(CNc2nc(C)c(-c3nc4c(C)nccc4s3)c(N[C@@H]3C[C@H](C4(O)CCCC4)[C@@H](O)[C@H]3O)n2)CCOC1 [Example 5103] | < 500
34 | COC[C@@H](C)Nc1nc(C)c(-c2nc3c(C)nccc3s2)c(N[C@@H]2C[C@H](C3(O)CCCC3)[C@@H](O)[C@H]2O)n1 [Example 5104] | < 500
35 | COCCNc1nc(C)c(-c2nc3c(C)nccc3s2)c(N[C@@H]2C[C@H]([C@H](O)C(C)C)[C@@H](O)[C@H]2O)n1 [Example 5105] | < 500
36 | Cc1nc(NCc2cc(F)c(F)cc2F)nc(N[C@@H]2C[C@H]([C@H](O)C(C)C)[C@@H](O)[C@H]2O)c1-c1nc2c(C)nccc2s1 [Example 5106] | < 500
37 | Cc1nc(N)nc(N[C@@H]2C[C@H](C3(O)CCCC3)[C@@H](O)[C@H]2O)c1-c1nc2c(C)nccc2s1 [Example 5107] | < 500
38 | Cc1nc(NC2(C3CCCC3)CC2)nc(N[C@@H]2C[C@H]([C@H](O)C(C)C)[C@@H](O)[C@H]2O)c1-c1nc2c(C)nccc2s1 [Example 5108] | < 500
39 | Cc1nc(NCC2(O)CCCC2)nc(N[C@@H]2C[C@H](C3(O)CCCC3)[C@@H](O)[C@H]2O)c1-c1nc2c(C)nccc2s1 [Example 5110] | < 500
40 | Cc1nc(NCC2(O)CC2)nc(N[C@@H]2C[C@H](C3(O)CCCC3)[C@@H](O)[C@H]2O)c1-c1nc2c(C)nccc2s1 [Example 5111] | < 500
41 | CCO[C@H]1C[C@H](CNc2nc(C)c(-c3nc4c(C)nccc4s3)c(N[C@@H]3C[C@H](C4(O)CCCC4)[C@@H](O)[C@H]3O)n2)C1 [Example 5112] | < 500
